{"source": "patent US20100004171A1", "about": "“Therapeutic Methods for Neuropathic Pain” (priority 2006, published 2010)", "key": {"agrin mRNA": {"test_system": "agrin mRNA", "test": "RT-PCR of agrin gene expression (C-terminal primers) in L3-5 spinal cord", "format": "in vivo, rat", "experimental": "Gene expression alterations after the nerve injury: Gene expression for amino(“N”)- and carboxy(“C”)-terminal halves of agrin was analyzed from L3-5 spinal cord of the rats (sacrificed at 2 hr, 24 hr, 3 days, and 7 days post surgery), using RT-PCR and real-time PCR. The differences in gene expression between sham-operated and nerve-injured groups were compared.\nTotal RNA extraction: The rats were deeply anesthetized with isoflurane and decapitated. The spinal cord from L3-5 was quickly removed and immediately put into a tube containing TRIzol® (2 ml, Invitrogen, Carlsbad, Calif.). The tissue was homogenized with IKA® T8 homogenizer (IKA®, Staufen, Germany) for 2 min, allowed to stand at room temperature for 3 min, and 0.4 ml chloroform added. The tube was vortexed and centrifuged at 12,000×g for 15 min. The water phase was transferred to a clean tube without any contamination from other phases. Then 1 ml isopropanol was added to the water phase, and the mixture allowed to stand for 10 min at room temperature. The tube was centrifuged for 10 min at 12,000×g. The supernatant was discarded, and the pellet washed with 1 ml 70% ethanol. The ethanol was discarded, and the RNA was re-dissolved in 30 μl nucleotide-free water. A 1 μl aliquot was taken and reserved to dilute 20-fold for RNA quality control. […]\n[…]. Changes in agrin gene induced by the injected drug was analyzed and compared."}, "agrin protein": {"test_system": "agrin protein", "test": "Western blot of agrin protein in L3-5 spinal cord", "format": "in vivo, rat", "experimental": "Western blot for detecting protein expression of agrin: Agrin protein was analyzed from L3-5 spinal cord with Western blot as described below at times of 1 day, 3 days, and 7 days post-surgery. The changes in these proteins between sham-operated, nerve-injured (no drug), and nerve-injured (pre-emptive drug) groups were analyzed.\nAgrin Protein Extraction: The rats were deeply anesthetized with isoflurane and decapitated. Spinal cord L3-5 was quickly removed and immediately placed into tissue lysis buffer (1 ml, Sigma Co., St. Louis, Mo.) that contained protein enzyme inhibitors (1:100, Halt, Pierce). The tissue was homogenized for 2 min and incubated on ice for 45 min. The sample was then centrifuged at 10,000×g for 30 min at 4° C. The supernatant was transferred to a new tube and centrifuged again for further clarifying. The concentration of the protein was determined by an Agilent's Bio-Rad protein chip (Agilent's 2100 bioanalyzer, Santa Clara, Calif.) and by the […] (reagents from Bio-Rad).\nWestern blot: Protein (20 μg) from each sample was mixed with 2× electrophoresis buffer and boiled for 5 min. The samples, along with a negative control, were loaded on 4-15% acrylamide tris-glycine SDS gels and electrophoresed in a cell (Bio-Rad) for approximately 1 hr. A Hybond-P polyvinylidene difluoride membrane (Bio-Rad, Hercules, Calif.) was used for transferring the protein in a mini-trans-blot transfer cell (Bio-Rad) for 2 hr. The membrane was then soaked in 2% milk for 1 hour and probed with monoclonal agrin antibody (Agr510 and Agr530, 1:5000, StressGen Biotechnologies Corp., Victoria, Canada) or β-actin antibody (1:5000) at 4° C. overnight with continual shaking. The following day goat anti-mouse secondary antibody conjugated to Alexa Fluor680 (1:5000, Molecular Probe) was added to the membrane and incubated for 1 hr at room temperature. The samples were washed three times with TBS buffer (Tris Buffered Saline, DAKO, Carpinteria, Calif.) between steps. The membrane was then scanned with an Odyssey (LI-COR) scanner and analyzed by Odyssey software (Li-Cor, Lincoln, Nebr.).\nIn rats with tactile allodynia (a withdrawal threshold with a filament below 8 g), an intrathecal catheter (PE 10) was installed and linked to an osmotic pump (Alzet) in a 37° C. water bath. Following a bolus injection of SCP-1 (30 nmol/kg, 10 μl), agrin siRNA (100 nM) was intrathecally administered continuously by the pump at a rate of 5 μl/1 hour for 4 hr. The animals were subjected to von Frey filament test every 15 min for 4 hr to determine whether the effects of SCP-1 on allodynia suppression are blocked by agrin siRNA. A control siRNA (nFsiRNA) was applied in the same way. The behavioral data was analyzed for agrin effects. […]"}, "[1]": {"test": "Solubility for intrathecal injection", "format": "physicochemical", "experimental": "The maximum volume injected at any one time was 10 μl.^[79]"}, "[2]": {"test_system": "tactile allodynia in allodynic rats", "test": "Tactile allodynia test (von Frey filaments, paw withdrawal threshold) in CCI (Bennett model) rats", "format": "in vivo, rat", "conditions": "for effect on tactile allodynia: day 7 after injury"}, "rodents": {"test_system": "rodents", "conditions": "orally to rodents, 3.7 mmol/kg to 36 mmol/kg; cited from earlier work"}, "[3]": {"test_system": "cultured human hepatocytes", "conditions": "100 μM; cited from earlier work"}, "nociceptive pain": {"test_system": "nociceptive pain", "conditions": "cited from earlier work"}, "[4]": {"test_system": "Bennett model rats with hyperalgesia and allodynia", "conditions": "intrathecally, 30 nmol/kg; cited from earlier work"}}, "data": [{"smiles": "O=C(CN1C(=O)c2ccccc2S1(=O)=O)Nc1ccc(O)cc1", "note": "[SCP-1]", "values": [{"measurement": "agrin mRNA", "setting": "agrin mRNA; allodynic rats, intrathecal injection 7 days post injury, one- and two-hour post injection", "result": "increased"}, {"measurement": "agrin mRNA", "setting": "agrin mRNA; pre-emptive intrathecal injection prior to CCI, 3 and 7 days post-injury", "result": "did not show a decrease in agrin mRNA"}, {"measurement": "agrin protein level", "setting": "agrin protein; allodynic rats, 2 h post-SCP-1 injection", "result": "up-regulated to a normal level"}, {"measurement": "agrin protein", "setting": "agrin protein; pre-emptive intrathecal injection prior to CCI, 3 and 7 days", "result": "did not decrease"}, {"measurement": "solubility in 45% 2-hydroxypropyl-α-cyclodextrin in saline", "setting": "[1]; 45% cyclodextrin in saline, 10 mM solutions prepared", "result": "can dissolve them"}, {"measurement": "solubility in water", "setting": "[1]; water", "result": "do not dissolve readily in water"}, {"measurement": "duration of suppressive effect", "setting": "[2]; Example 9: SCP-1 alone", "result": "at least 4 hr"}, {"measurement": "effect on tactile allodynia", "setting": "[2]; intrathecal 1 nmol", "result": "did not affect tactile allodynia"}, {"measurement": "effect on tactile allodynia", "setting": "[2]; intrathecal 10 nmol", "result": "did not affect tactile allodynia"}, {"measurement": "effect on tactile allodynia", "setting": "[2]; intrathecal 50 nmol", "result": "only a mild effect"}, {"measurement": "withdrawal threshold at 2 hr post-injection", "setting": "[2]; intrathecal 100 nmol", "result": "27.3 ± 2.5", "unit": "g"}, {"measurement": "withdrawal threshold at 90 min after injection", "setting": "[2]; intrathecal 100 nmol, basal threshold 4.6±1.1 g", "result": "28 ± 2.4", "unit": "g"}, {"measurement": "effect on tactile allodynia", "setting": "[2]; intrathecal 200 nmol", "result": "suppressed the tactile allodynia"}, {"measurement": "effect on tactile allodynia (paw withdrawal threshold)", "setting": "[2]; pre-emptive intrathecal 100 nmol in 10 μl saline immediately prior to CCI, 0, 3, 7 days", "result": "prevented"}, {"measurement": "duration of prevention of tactile allodynia", "setting": "[2]; pre-emptive intrathecal 100 nmol prior to CCI", "result": "up to 7 days"}, {"measurement": "effect on paw withdrawal threshold at 7 days", "setting": "[2]; pre-emptive intrathecal 100 nmol prior to CCI, 7 days after injury", "result": "remained strong"}, {"measurement": "toxicity after oral dosing", "setting": "rodents", "result": "the animals were still moving normally"}, {"measurement": "apoptosis", "setting": "[3]", "result": "did not induce apoptosis"}, {"measurement": "effect on nociceptive pain", "setting": "nociceptive pain; formalin- and CFA-induced, rodent models, without any toxicity", "result": "suppressed formalin- and CFA-induced nociceptive pain"}, {"measurement": "acute liver or kidney toxicity", "setting": "nociceptive pain; while relieving nociceptive pain", "result": "without acute liver or kidney toxicity"}, {"measurement": "effect on allodynia and hyperalgesia", "setting": "[4]", "result": "depressed the signs of allodynia and hyperalgesia"}]}]}
